Results published in patent publication US20230064189A1, “1H-PYRAZOLO[3,4-D]PYRIMIDINE COMPOUNDS USEFUL FOR THE TREATMENT OF PLATINUM-RESISTANT CANCER” (IMPERIAL COLLEGE INNOVATIONS LIMITED, priority 2019, published 2023).

Assays:
PEO4 cells [1] = assay: Relative re-sensitisation ratio of apoptosis induction (caspase 3/7 normalised to MTT) with cisplatin; format: cell-based; settings: compound at 20 μM, triciribine at 25 μM, cisplatin 25 μM, 24 h
Protocol: Cell viability was determined for different assays (as described in FIGS. 1 and 2, Table 5) in optically clear 96 well plates using the standard 3-(4, 5-dimethylthiazol-2-yl)-2, 5-diphenyl tetrazolium bromide (MTT) assay, which is a colorimetric method for determining the number of metabolically active cells in cytotoxicity assays. MTT is bioreduced by mitochondrial dehydrogenase enzymes into a coloured solid formazan product. MTT reagent (Sigma, UK) was initially prepared by dissolving in PBS at a concentration of 3 mg/ml. Following relevant drug treatments at different time points and cell lines (described in results section and FIGS. 1 and 2), MTT reagent was added to each experimental well at a final concentration of 0.5 mg/ml. After incubation for 3 h at 37° C. 5% CO2, an equal volume of stop solution (10% SDS in 0.01% HCl) was added and formed formazan crystals were allowed to dissolve shaking overnight. The following day, the optical density was read at 570 nm and analysis performed as per each assay type.
(§1) The caspase 3/7 activity of cells following treatment with inhibitor compounds or vehicle (DMSO) was determined using the Caspase-Glo® 3/7 Assay (Catalogue number G8093, Promega, US) according to manufacturer's instructions. Briefly, 10,000 cells per well for PEO1 and PEO4 cell lines or 5000 cells per well for SKOV3 cell line were grown in 96 well plates in a final volume of 50 μl and following relevant drug treatment of cells (example compound±cisplatin, comparative example compound±cisplatin, or vehicle±cisplatin) for 24 hours, an equal volume of Caspase-Glo® Reagent containing a luminogenic substrate for Caspase 3 and Caspase 7 was added i.e. if cells cultured in 50 μl of media, 50 μl of caspase reagent was added. After 1 h incubation at room temperature in the dark, the luminescence of each sample was measured in a plate-reading luminometer (LUMIstar OPTIMA, BMG Labtech, Germany). Caspase 3/7 activity data was normalised to corresponding viability data from MTT and analysis was performed according to each experimental set-up.
. Apoptosis (caspase 3/7) and viability (MTT) assays were carried out as described for each assay protocols and the phenotypic apoptosis assays above. Relative apoptosis induction was inferred from caspase 3/7 assay values normalised to the standard MTT viability assay values of each corresponding well. […]

AKT1 = AKT1 (Homo sapiens, UniProt P31749); assay: AKT1 enzymatic inhibition assay (HTRF KinEASE); format: biochemical; settings: read-out: AKT1 pIC50 (converted)
Sequence of AKT1 (P31749 150-408 limits assumed): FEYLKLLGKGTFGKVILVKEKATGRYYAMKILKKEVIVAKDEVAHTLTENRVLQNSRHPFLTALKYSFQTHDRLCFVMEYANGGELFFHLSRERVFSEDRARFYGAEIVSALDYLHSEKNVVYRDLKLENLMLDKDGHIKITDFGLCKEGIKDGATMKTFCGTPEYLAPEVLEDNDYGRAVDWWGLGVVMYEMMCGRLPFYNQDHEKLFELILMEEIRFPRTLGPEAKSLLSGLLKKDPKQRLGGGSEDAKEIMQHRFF
Protocol: (§2) The IC50 values of Example compounds of the invention for AKT1, AKT2 and AKT3 were measured using HTRF (Homogeneous Time Resolved Fluorescence) KinEASE assays (62ST3PEB—1000 tests or 62ST3PEC—20,000 tests) from cisbio.com, according to manufacturer's instructions.

DNA-PK = DNA-PK (Homo sapiens, UniProt P78527); assay: DNA-PK enzymatic inhibition assay (HTRF KinEASE); format: biochemical; settings: read-out: DNA-PK pIC50 (converted)
Protocol: The IC50 values of Example compounds of the invention for DNA-PK were measured using the HTRF KinEASE assay as described above.

SKOV3 cells = assay: Phenotypic apoptosis assay (caspase 3/7 normalised to MTT) plus/minus cisplatin in SKOV3; format: cell-based; settings: for activity in phenotypic in vitro apoptosis platinum re-sensitisation assays: inhibitor 6.67 μM + cisplatin 25 μM
Protocol: Data shown is n=3±s.e.m; ** p<0.01, * p<0.0^5.
(§3) MTT is bioreduced by mitochondrial dehydrogenase enzymes into a coloured solid formazan product. MTT reagent (Sigma, UK) was initially prepared by dissolving in PBS at a concentration of 3 mg/ml. […] After incubation for 3 h at 37° C. 5% CO2, an equal volume of stop solution (10% SDS in 0.01% HCl) was added and formed formazan crystals were allowed to dissolve shaking overnight. The following day, the optical density was read at 570 nm and analysis performed as per each assay type.
as §1
(§4) Phenotypic apoptosis assays were performed to determine the level of caspase 3/7 dependent apoptotic induction of each inhibitor compound in the presence or absence of cisplatin (cddp). PEO4 and SKOV3 cells were seeded out 24 hours prior to drug treatments. […] 5% CO2. […] Duplicate plates were set up for each experiment for caspase and MTT assays. Caspase and MTT assays were carried out according to the protocols described above.
(§5) Data shown in FIGS. 2A and 2B are n=3±s.e.m. Statistical significance was calculated using student t-test using GraphPad Prism software ** p<0.01, * p<0.05.

AKT2 = AKT2 (Homo sapiens, UniProt P31751); assay: AKT2 enzymatic inhibition assay (HTRF KinEASE); format: biochemical; settings: read-out: AKT2 pIC50 (converted)
Sequence of AKT2 (P31751 152-409 limits assumed): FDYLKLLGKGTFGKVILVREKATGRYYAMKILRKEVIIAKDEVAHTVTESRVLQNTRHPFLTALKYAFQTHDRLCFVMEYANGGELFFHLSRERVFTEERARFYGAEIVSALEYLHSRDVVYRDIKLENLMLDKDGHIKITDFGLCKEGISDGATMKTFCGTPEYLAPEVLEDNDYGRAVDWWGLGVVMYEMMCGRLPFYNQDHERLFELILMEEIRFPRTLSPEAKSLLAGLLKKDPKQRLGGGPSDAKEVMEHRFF
Protocol: as §2

AKT3 = AKT3 (Homo sapiens, UniProt Q9Y243); assay: AKT3 enzymatic inhibition assay (HTRF KinEASE); format: biochemical; settings: read-out: AKT3 pIC50 (converted)
Sequence of AKT3 (Q9Y243 148-405 limits assumed): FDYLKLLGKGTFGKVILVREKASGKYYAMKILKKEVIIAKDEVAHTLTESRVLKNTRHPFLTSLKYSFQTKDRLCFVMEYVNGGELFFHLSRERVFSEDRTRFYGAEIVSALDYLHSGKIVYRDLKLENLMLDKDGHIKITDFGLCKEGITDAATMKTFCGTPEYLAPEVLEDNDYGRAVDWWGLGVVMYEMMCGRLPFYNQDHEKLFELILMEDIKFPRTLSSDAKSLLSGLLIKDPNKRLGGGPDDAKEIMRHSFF
Protocol: as §2

PEO4 cells [2] = assay: Phenotypic apoptosis assay (caspase 3/7 normalised to MTT) plus/minus cisplatin in PEO4; format: cell-based; settings: 24 hours
Protocol: as §3, §1, §4, §5

[3] = test system: platinum resistant epithelial ovarian cancer cell line SKOV3; assay: Isobologram (Loewe synergy/antagonism, MTT viability) with cisplatin in SKOV3; format: cell-based; settings: SKOV3, 72 hours, MTT readout
Protocol: (§6) . Data shown is n=3. Decreasing negative numbers within each table indicate increasing levels of antagonism, increasing positive numbers indicate increasing levels of synergy between cisplatin and inhibitor compounds.
(§7) Cell viability was determined for different assays (as described in FIGS. 1 and 2, Table 5) in optically clear 96 well plates using the standard 3-(4, 5-dimethylthiazol-2-yl)-2, 5-diphenyl tetrazolium bromide (MTT) assay, which is a colorimetric method for determining the number of metabolically active cells in cytotoxicity assays. MTT is bioreduced by mitochondrial dehydrogenase enzymes into a coloured solid formazan product. […] The following day, the optical density was read at 570 nm and analysis performed as per each assay type.
(§8) All cell lines (PEO1, PEO4 and SKOV3) were seeded out 24 hours prior to treatment into 96 well plates at 10,000 cells per well in triplicate for each inhibitor compound. […] Following 72 hours incubation, cell viability was assessed using the MTT assay (n=3). IC50 values for each compound was determined using GraphPad Prism software, non-linear regression of log (inhibitor) versus response (three parameters). All isobologram assays used the standard MTT protocol as described above for assay readout. […] Following 72 h incubation, cell viability was assessed using MTT assays as described above. […]

[4] = test system: platinum sensitive cell line PEO1; assay: Isobologram (Loewe synergy/antagonism, MTT viability) with cisplatin in PEO1; format: cell-based; settings: PEO1, 72 hours, MTT readout
Protocol: as §6, §7, §8

[5] = test system: platinum resistant cell line PEO4; assay: Isobologram (Loewe synergy/antagonism, MTT viability) with cisplatin in PEO4; format: cell-based; settings: PEO4, 72 hours, MTT readout
Protocol: as §6, §7, §8

[6] = inhibitor 10 μM + cisplatin 25 μM
[7] = inhibitor 10 μM + cisplatin 25 μM, 24 hours

IC50 (AKT1) [nM]	IC50 (DNA-PK) [nM]	IC50 (AKT2) [nM]	IC50 (AKT3) [nM]	SMILES	Relative re-sensitisation ratio of apoptosis induction (caspase 3/7) relative to triciribine phosphate (PEO4 cells [1])	activity in phenotypic in vitro apoptosis platinum re-sensitisation assays (SKOV3 cells)	apoptosis (re-sensitisation) in combination with cisplatin (PEO4 cells [2]; [6])	apoptosis (re-sensitisation) in combination with cisplatin (SKOV3 cells; [7])	further results
0.575	0.158	1.41	0.219	CN(C)CCNC(c1ccc(Cl)cc1)C1CCN(c2ncnc3[nH]nc(C(F)(F)F)c23)CC1 (single isomer, unassigned; (+)) [Example 12a, (+)-N^1-((4-chlorophenyl)(1-(3-(trifluoromethyl)-1H-pyrazolo[3,4-d]pyrimidin-4-yl)piperidin-4-yl)methyl)-N^2,N^2-dimethylethane-1,2-diamine]	1.2	active	–	–	–
3.39	5.37	5.5	0.832	CN(C)CCNC(c1ccc(Cl)cc1)C1CCN(c2ncnc3[nH]nc(C(F)(F)F)c23)CC1 (single isomer, unassigned; (-)) [Example 12b, (−)-N^1-((4-chlorophenyl)(1-(3-(trifluoromethyl)-1H-pyrazolo[3,4-d]pyrimidin-4-yl)piperidin-4-yl)methyl)-N^2,N^2-dimethylethane-1,2-diamine]	1.0	active	–	–	–
–	–	–	–	Cn1ncc(Cl)c1-c1cc(C(=O)N[C@H](CN)Cc2cccc(F)c2)sc1Cl [Afuresertib, N-[(2S)-1-amino-3-(3-fluorophenyl)propan-2-yl]-5-chloro-4-(4-chloro-2-methylpyrazol-3-yl)thiophene-2-carboxamide]	–	–	showed re-sensitisation	showed re-sensitisation	–
0.324	0.24	0.55	0.112	CN(C)CC(c1ccc(Cl)cc1)N1CCN(c2ncnc3[nH]nc(Br)c23)CC1 (centres unmarked) [Example 1, 2-[4-(3-bromo-1H-pyrazolo[3,4-d]pyrimidin-4-yl)piperazin-1-yl]-2-(4-chlorophenyl)-N,N-dimethyl-ethanamine]	3.0	active	–	–	synergy in combination with cisplatin (Loewe isobologram analysis) [3]: strong synergy; apoptosis (re-sensitisation) in combination with cisplatin compared to cisplatin alone (PEO4 cells [2]; inhibitor 2 μM + cisplatin 25 μM): statistically significant increases in apoptosis; apoptosis (re-sensitisation) in combination with cisplatin compared to cisplatin alone (SKOV3 cells; inhibitor 2 μM + cisplatin 25 μM, 24 hours): statistically significant increases in apoptosis; synergy in combination with cisplatin (Loewe isobologram analysis) [4]: superior synergy; synergy in combination with cisplatin (Loewe isobologram analysis) [5]: strong synergy
5.75	3.89	10.5	3.63	CN(C)CCOC(c1ccc(Cl)cc1)C1CCN(c2ncnc3[nH]nc(Br)c23)CC1 (centres unmarked) [Example 2, 2-((1-(3-bromo-1H-pyrazolo[3,4-d]pyrimidin-4-yl)piperidin-4-yl)(4-chlorophenyl)methoxy)-N,N-dimethylethan-1-amine]	2.9	active	–	–	–
–	10.5	–	–	CCn1c(-c2nonc2N)nc2c(C#CC(C)(C)O)ncc(OC[C@H]3CCCNC3)c21 [GSK-3g, 4-[2-(4-amino-1,2,5-oxadiazol-3-yl)-1-ethyl-7-[[(3S)-piperidin-3-yl]methoxy]imidazo[4,5-c]pyridin-4-yl]-2-methylbut-3-yn-2-ol, reference compound]	–	inactive	–	–	–
–	–	–	–	CC(C)NC[C@@H](C(=O)N1CCN(c2ncnc3c2[C@H](C)C[C@H]3O)CC1)c1ccc(Cl)cc1 [Ipatasertib, (2S)-2-(4-chlorophenyl)-1-[4-[(5R,7R)-7-hydroxy-5-methyl-6,7-dihydro-5H-cyclopenta[d]pyrimidin-4-yl]piperazin-1-yl]-3-(propan-2-ylamino)propan-1-one]	–	–	–	–	apoptosis (re-sensitisation) in combination with cisplatin (PEO4 cells [2]; inhibitor 20 μM + cisplatin 25 μM): showed re-sensitisation; apoptosis (re-sensitisation) in combination with cisplatin (SKOV3 cells; inhibitor 20 μM + cisplatin 25 μM, 24 hours): showed re-sensitisation
–	–	–	–	CO[C@@H](C)Cn1c(=O)n(C)c2cnc3ccc(-c4cncc(C(C)(C)O)c4)cc3c21 [LY3023414, 8-[5-(2-hydroxypropan-2-yl)pyridin-3-yl]-1-[(2S)-2-methoxypropyl]-3-methylimidazo[4,5-c]quinolin-2-one]	–	–	showed re-sensitisation	showed re-sensitisation	–
–	–	–	–	O=c1cc(N2CCOCC2)oc2c(-c3cccc4c3sc3ccccc34)cccc12 [NU7441, 8-dibenzothiophen-4-yl-2-morpholin-4-ylchromen-4-one]	–	–	showed re-sensitisation	showed re-sensitisation	–
–	–	–	–	Cn1ncc(Cl)c1-c1cc(C(=O)N[C@H](CN)Cc2ccc(F)c(F)c2)oc1Cl [Uprosertib, N-[(2S)-1-amino-3-(3,4-difluorophenyl)propan-2-yl]-5-chloro-4-(4-chloro-2-methylpyrazol-3-yl)furan-2-carboxamide]	–	–	showed re-sensitisation	showed re-sensitisation	–
